Legend:
Test in all cases: relative viability (nuclei count vs DMSO), 5 days (fraction); higher = more cells survive
NCI-H1915 = tested on: NCI-H1915
Method in brief: (§1)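 Lung cancer cell lines in 1536-well plates got either a single drug or a fixed anchor-drug dose together with five library-drug doses (not always all listed) in √10 steps, by pin tool, on the day after seeding. Nuclei were counted after 5 days, and relative viability is the treated-to-vehicle ratio of nuclei counts. Values are medians of duplicate plates.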

NCI-H2085 = tested on: NCI-H2085
Method in brief: as §1

NCI-H2087 = tested on: NCI-H2087
Method in brief: as §1

NCI-H2228 = tested on: NCI-H2228
Method in brief: as §1

NCI-H322M = tested on: NCI-H322M
Method in brief: as §1

NCI-H358 = tested on: NCI-H358
Method in brief: as §1

NCI-H661 = tested on: NCI-H661
Method in brief: as §1

NCI-H838 = tested on: NCI-H838
Method in brief: as §1

PC-14 = tested on: PC-14
Method in brief: as §1

PC-3 [JPC-3] = tested on: PC-3 [JPC-3]
Method in brief: as §1

SK-MES-1 = tested on: SK-MES-1
Method in brief: as §1

UMC-11 = tested on: UMC-11
Method in brief: as §1

Which relative viability (NCI-H1915; first compound 50 µM) does the source give for O=C(O)CCCCC(CCSCc1ccccc1)SCc1ccccc1 (configuration not stated) [CPI-613] + CC(=O)c1c(C)c2cnc(Nc3ccc(N4CCNCC4)cn3)nc2n(C2CCCC2)c1=O [Palbociclib] (partner 0.5 µM) here?
The relative viability was 0.506.

And the relative viability (NCI-H1915; first compound 158.11 µM)?
Its relative viability is 0.23.

And the relative viability (NCI-H1915; first compound 500 µM)?
The relative viability was 0.0812.

What about the relative viability (NCI-H2085; first compound 5 µM) of the same molecule?
Its relative viability is 0.447.

And the relative viability (NCI-H2085; first compound 15.81 µM)?
Its relative viability is 0.47.

What about the relative viability (NCI-H2085; first compound 50 µM) of the same molecule?
Its relative viability is 0.456.

What about the relative viability (NCI-H2085; first compound 158.11 µM) of the same molecule?
Its relative viability is 0.391.

And the relative viability (NCI-H2085; first compound 500 µM)?
The relative viability was 0.191.

What about the relative viability (NCI-H2087; first compound 5 µM) of the same molecule?
Its relative viability is 0.253.

And the relative viability (NCI-H2087; first compound 15.81 µM)?
The relative viability was 0.197.

What about the relative viability (NCI-H2087; first compound 50 µM) of the same molecule?
The relative viability was 0.19.

What about the relative viability (NCI-H2087; first compound 158.11 µM) of the same molecule?
The relative viability was 0.0923.

And the relative viability (NCI-H2087; first compound 500 µM)?
The relative viability was 0.0098.

And the relative viability (NCI-H2228; first compound 5 µM)?
The relative viability was 0.693.

And the relative viability (NCI-H2228; first compound 15.81 µM)?
The relative viability was 0.622.

What about the relative viability (NCI-H2228; first compound 50 µM) of the same molecule?
Its relative viability is 0.679.

What about the relative viability (NCI-H2228; first compound 158.11 µM) of the same molecule?
The relative viability was 0.45.

What about the relative viability (NCI-H2228; first compound 500 µM) of the same molecule?
Its relative viability is 0.0679.

What about the relative viability (NCI-H322M; first compound 5 µM) of the same molecule?
Its relative viability is 0.466.

And the relative viability (NCI-H322M; first compound 15.81 µM)?
The relative viability was 0.47.

And the relative viability (NCI-H322M; first compound 50 µM)?
The relative viability was 0.494.

And the relative viability (NCI-H322M; first compound 158.11 µM)?
Its relative viability is 0.513.

And the relative viability (NCI-H322M; first compound 500 µM)?
The relative viability was 0.288.

What about the relative viability (NCI-H358; first compound 5 µM) of the same molecule?
Its relative viability is 0.114.

And the relative viability (NCI-H358; first compound 15.81 µM)?
Its relative viability is 0.134.

And the relative viability (NCI-H358; first compound 50 µM)?
Its relative viability is 0.154.

What about the relative viability (NCI-H358; first compound 158.11 µM) of the same molecule?
The relative viability was 0.0757.

What about the relative viability (NCI-H358; first compound 500 µM) of the same molecule?
Its relative viability is 0.0449.

And the relative viability (NCI-H661; first compound 5 µM)?
Its relative viability is 0.404.

And the relative viability (NCI-H661; first compound 15.81 µM)?
Its relative viability is 0.374.

And the relative viability (NCI-H661; first compound 50 µM)?
The relative viability was 0.387.

And the relative viability (NCI-H661; first compound 158.11 µM)?
Its relative viability is 0.24.

And the relative viability (NCI-H661; first compound 500 µM)?
Its relative viability is 0.132.

And the relative viability (NCI-H838; first compound 5 µM)?
Its relative viability is 0.21.

What about the relative viability (NCI-H838; first compound 15.81 µM) of the same molecule?
The relative viability was 0.189.

What about the relative viability (NCI-H838; first compound 50 µM) of the same molecule?
Its relative viability is 0.216.

What about the relative viability (NCI-H838; first compound 158.11 µM) of the same molecule?
Its relative viability is 0.139.

And the relative viability (NCI-H838; first compound 500 µM)?
Its relative viability is 0.0859.

And the relative viability (PC-14; first compound 5 µM)?
The relative viability was 0.534.

What about the relative viability (PC-14; first compound 15.81 µM) of the same molecule?
Its relative viability is 0.54.

And the relative viability (PC-14; first compound 50 µM)?
Its relative viability is 0.49.

And the relative viability (PC-14; first compound 158.11 µM)?
The relative viability was 0.0565.

What about the relative viability (PC-14; first compound 500 µM) of the same molecule?
Its relative viability is 0.0114.

What about the relative viability (PC-3 [JPC-3]; first compound 5 µM) of the same molecule?
The relative viability was 0.559.

What about the relative viability (PC-3 [JPC-3]; first compound 50 µM) of the same molecule?
Its relative viability is 0.512.

What about the relative viability (PC-3 [JPC-3]; first compound 158.11 µM) of the same molecule?
Its relative viability is 0.265.

And the relative viability (PC-3 [JPC-3]; first compound 500 µM)?
The relative viability was 0.263.

What about the relative viability (SK-MES-1; first compound 5 µM) of the same molecule?
The relative viability was 0.305.

And the relative viability (SK-MES-1; first compound 15.81 µM)?
The relative viability was 0.279.

And the relative viability (SK-MES-1; first compound 50 µM)?
The relative viability was 0.277.

What about the relative viability (SK-MES-1; first compound 158.11 µM) of the same molecule?
The relative viability was 0.14.

And the relative viability (SK-MES-1; first compound 500 µM)?
Its relative viability is 0.145.

What about the relative viability (UMC-11; first compound 5 µM) of the same molecule?
The relative viability was 0.346.

And the relative viability (UMC-11; first compound 15.81 µM)?
Its relative viability is 0.354.

What about the relative viability (UMC-11; first compound 50 µM) of the same molecule?
The relative viability was 0.323.

And the relative viability (UMC-11; first compound 158.11 µM)?
Its relative viability is 0.23.

What about the relative viability (UMC-11; first compound 500 µM) of the same molecule?
The relative viability was 0.216.
